According to patent publication US7399638B2, “Prediction method for lipidosis” (Takeda Pharmaceutical Company Limited, priority 2003, dated 2008):
Like-named read-outs stand apart in the source and are kept apart here. Marks after values point to notes of the source that are not given here.

How the values were obtained:
Crj: CD(SD)IGS rats [1] = details: rat, gavage once daily for 3 days; printed on the line of the lowest dose, dose group unclear
Experimental: Each test drug was administered by gavage at a dosing liquid volume of 10 mL/kg/day once daily for 3 days (4 days for the negative control). The animals were examined for mortality, general conditions, body weight, food consumption and the like using PM4800 (Mettler) and EB3200D (Shimadzu Corporation).
Crj: CD(SD)IGS rats [2] = test: Urinary PAG/hippuric acid ratio by 1H NMR in rats; details: rat urine; for PAG + hippuric acid/creatinine / PAG/PAG + hippuric acid / PAG/creatinine (first term of PAG + hippuric acid) / PAG/hippuric acid / hippuric acid/creatinine (second term of PAG + hippuric acid): 3 days, mean n = 3-4
Experimental: During the urine pooling, the collecting vessels were kept in an ice-cooled condition. After the urine collection, the urine was centrifuged at 1500×g for 10 minutes, and not less than 1 mL of the supernatant was collected and stored under freezing (below −70° C.) in a microtube in an ultralow-temperature freezer until the measurement. For the negative control group, 24-hour pooled urine was collected under ice cooling; after the urine collection, the urine was stored at −30° C. until the measurement.
Crj: CD(SD)IGS rats [3] = details: male, rat, in vivo, 3 days
Experimental: (§1) The following 10 kinds of commercially available drugs were examined as the test compounds for a potential of inducing PLsis by histopathological examination and peripheral blood lymphocyte testing.
(§2) The following experiments were performed using the prematurely autopsied animals.
(§3) The high-dose dosing suspension was diluted about 3 fold and 10 fold with dispersant/solvent to prepare intermediate- and low-dose dosing suspensions. […] [For LD50, the Summary Basis of Approval (FDA) for each drug was referenced to.]
(§4) The animals were examined for mortality, general conditions, body weight, food consumption and the like using PM4800 (Mettler) and EB3200D (Shimadzu Corporation).
Hematological examination was performed for parameters such as RBC count, hematocrit, hemoglobin concentration, mean corpuscular hemoglobin (MCH), mean corpuscular hemoglobin concentration (MCHC), mean corpuscular volume (MCV), platelet count, WBC count, reticulocyte count, differential WBC, and vacuolated lymphocyte ratio (for PLsis-inducing compounds only) using ADVIA120 (Bayer Medical Ltd.) and E-4000 (Sysmex Corporation).

Crj: CD(SD)IGS rats [4] = details: rat, in vivo
Experimental: as §1, §2, §3, §4

[5] = cited from earlier work
male cynomolgus monkeys [6] = test: Urinary PAGN/hippuric acid ratio by 1H NMR in monkeys; format: in vivo, cynomolgus monkey; details: for Urinary PAGN/hippuric acid ratio: male cynomolgus monkey, 60 mg/kg/day by gavage for 7 days
Experimental: (§5) Subsequently, the animals were allocated to four groups (5 animals in total) comprising 2 animals in the control group and 1 male in each treatment group, respectively.
(§6) The high-dose dosing suspension was diluted with the dispersant/solvent to prepare a low-dose dosing suspension.
Pooled urine was collected from the monkeys in the Example above under fasting for about 6 hours in the pre-dosing period (Pre), on the first day of administration (Day 0), and on days 2 and 6 of treatment period (Days 2 and 6).
^1H NMR was performed as described below. Reagents were used without purification. Heavy water (D2O) was purchased from ISOTEC. […] INC (USA).
A phosphate buffer solution was prepared as described below.
Operating conditions were set as shown below.

male cynomolgus monkeys [7] = details: cynomolgus monkey, in vivo, 60 mg/kg
Experimental: Amiodarone and perhexiline were purchased from SIGMA Company.
as §5, §6
After completion of the administration, livers, kidneys, hearts, spleens, lungs, mesenteric lymph nodes, eyeballs, testes and brains were collected from all animals, and examined for histopathological changes by conventional method of optical microscopy. Additionally, blood samples were collected in the pre-dosing period, on the first day of administration, and on days 2 and 6 of treatment period, blood smear specimens were prepared, and vacuolated lymphocyte ratios were determined.

Crj: CD(SD)IGS rats [8] = details: rat urine, LC-MS/MS, 60 mg/kg/day by gavage for 7 days
Experimental: During that period, the animals were quarantined, examined for general conditions, and weighed. Animals showing no abnormalities were selected and randomly allocated to five groups for urine collection each comprising four males.
The animals were individually housed in wire-net-based metal cages, and the individual cages were placed on water-washable rack in a clean booth as randomized for the animal groups. Animal room environmental conditions comprised a room temperature of 20 to 26° C., a relative humidity of 40 to 70%, and a fresh air ventilation frequency of 8 to 25 times/hour, with a bright phase of 12 hours/day (lighting time: 7:00 am to 7:00 pm). The animals were fed a γ-ray-irradiated powder food (CR-LPF, Oriental Yeast Co., Ltd.) and had free access to the food along with tap water.
A dispersant/medium was added to each test material, and the mixture was stirred to prepare dosing suspensions.
Each test material was administered by gavage at a dosing suspension volume of 10 mL/kg/day once daily for 7 days.
After completion of the administration, pooled urine was collected with ice cooling from all animals under fasting and water denial for about 6 hours. […]
Quantitative analyses of rat urinary hippuric acid and PAG by LC-MS/MS were performed as described below. […]

[9] = from Summary Basis of Approval (FDA), species and route not given

## NC12CC3CC(CC(C3)C1)C2 [Amantadine]
Crj: CD(SD)IGS rats [1]
  death (note beside the dose): (death)
Crj: CD(SD)IGS rats [2]; 75 mg/kg/day by gavage
  PAG + hippuric acid/creatinine: 1.44
  PAG/PAG + hippuric acid: 16.17%
  PAG/creatinine (first term of PAG + hippuric acid): 0.23
  PAG/hippuric acid: 19.31%
Crj: CD(SD)IGS rats [2]; 250 mg/kg/day by gavage
  PAG + hippuric acid/creatinine: 1.21
  PAG/PAG + hippuric acid: 16.18%
  PAG/creatinine (first term of PAG + hippuric acid): 0.20
  PAG/hippuric acid: 19.69%
  hippuric acid/creatinine (second term of PAG + hippuric acid): 1.02
Crj: CD(SD)IGS rats [2]; 750 mg/kg/day by gavage
  PAG + hippuric acid/creatinine: 0.37
  PAG/PAG + hippuric acid: 56.58%
  PAG/creatinine (first term of PAG + hippuric acid): 0.21
  PAG/hippuric acid: 130.33%
  hippuric acid/creatinine (second term of PAG + hippuric acid): 0.16

## CN(C)CCCN1c2ccccc2Sc2ccc(Cl)cc21 [Chlorpromazine, chlorpromazine]
Crj: CD(SD)IGS rats [3]; 100 mg/kg/day
  Mean vacuolated lymphocyte ratio: 2%
Crj: CD(SD)IGS rats [3]; 300 mg/kg/day
  Mean vacuolated lymphocyte ratio: 2%
Crj: CD(SD)IGS rats [3]; 1000 mg/kg/day
  Mean vacuolated lymphocyte ratio: 1%
Crj: CD(SD)IGS rats [4]
  PLsis positivity by histopathological examination or vacuolated lymphocyte testing: could not be determined
Crj: CD(SD)IGS rats [4]; 100 mg/kg/day
  Histopathological changes (PLsis): Liver: −
  Histopathological changes (PLsis): Lung: −
  Histopathological changes (PLsis): Lymph node: −
  Histopathological changes (PLsis): Others: −
  Histopathological changes (PLsis): Spleen: −
Crj: CD(SD)IGS rats [4]; 300 mg/kg/day
  Histopathological changes (PLsis): Liver: −
  Histopathological changes (PLsis): Lung: −
  Histopathological changes (PLsis): Lymph node: −
  Histopathological changes (PLsis): Others: −
  Histopathological changes (PLsis): Spleen: −
Crj: CD(SD)IGS rats [4]; 1000 mg/kg/day
  Histopathological changes (PLsis): Liver: −
  Histopathological changes (PLsis): Lung: −
  Histopathological changes (PLsis): Lymph node: −
  Histopathological changes (PLsis): Others: −
  Histopathological changes (PLsis): Spleen: −
[5]; [9]
  LD50: 145 mg/kg
Crj: CD(SD)IGS rats [2]; 100 mg/kg/day by gavage
  PAG + hippuric acid/creatinine: 1.45
  PAG/PAG + hippuric acid: 12.80%
  PAG/creatinine (first term of PAG + hippuric acid): 0.18
  PAG/hippuric acid: 14.93%
  hippuric acid/creatinine (second term of PAG + hippuric acid): 1.27
Crj: CD(SD)IGS rats [2]; 300 mg/kg/day by gavage
  PAG + hippuric acid/creatinine: 1.63
  PAG/PAG + hippuric acid: 12.57%
  PAG/creatinine (first term of PAG + hippuric acid): 0.21
  PAG/hippuric acid: 14.51%
Crj: CD(SD)IGS rats [2]; 1000 mg/kg/day by gavage
  PAG + hippuric acid/creatinine: 0.86*
  PAG/PAG + hippuric acid: 42.20* %
  PAG/creatinine (first term of PAG + hippuric acid): 0.30
  PAG/hippuric acid: 104.13* %
  hippuric acid/creatinine (second term of PAG + hippuric acid): 0.56
Crj: CD(SD)IGS rats [2]; high-dose administration group, 3-day administration
  PAG/hippuric acid ratio or PAG/(PAG+hippuric acid) ratio: remarkable increase

## CN(C)CCCN1c2ccccc2CCc2ccc(Cl)cc21 [Clomipramine, clomipramine]
Crj: CD(SD)IGS rats [3]; 100 mg/kg/day
  Mean vacuolated lymphocyte ratio: 2%
Crj: CD(SD)IGS rats [3]; 300 mg/kg/day
  Mean vacuolated lymphocyte ratio: 30%
Crj: CD(SD)IGS rats [3]; 1000 mg/kg/day
  Mean vacuolated lymphocyte ratio: 38%
Crj: CD(SD)IGS rats [4]; 100 mg/kg/day
  Histopathological changes (PLsis): Liver: −
  Histopathological changes (PLsis): Lung: −
  Histopathological changes (PLsis): Lymph node: −
  Histopathological changes (PLsis): Others: −
  Histopathological changes (PLsis): Spleen: −
Crj: CD(SD)IGS rats [4]; 300 mg/kg/day
  Histopathological changes (PLsis): Liver: −
  Histopathological changes (PLsis): Lung: +
  Histopathological changes (PLsis): Lymph node: +
  Histopathological changes (PLsis): Others: −
  Histopathological changes (PLsis): Spleen: −
Crj: CD(SD)IGS rats [4]; 1000 mg/kg/day
  Histopathological changes (PLsis): Liver: +
  Histopathological changes (PLsis): Lung: −
  Histopathological changes (PLsis): Lymph node: +
  Histopathological changes (PLsis): Others: Kidney
  Histopathological changes (PLsis): Spleen: −
Crj: CD(SD)IGS rats [1]
  death (note beside the dose): (death)
[5]; in vivo
  LD50: 914 mg/kg
Crj: CD(SD)IGS rats [2]; 100 mg/kg/day by gavage
  PAG + hippuric acid/creatinine: 1.42
  PAG/PAG + hippuric acid: 14.27%
  PAG/creatinine (first term of PAG + hippuric acid): 0.20
  PAG/hippuric acid: 16.79%
  hippuric acid/creatinine (second term of PAG + hippuric acid): 1.22
Crj: CD(SD)IGS rats [2]; 300 mg/kg/day by gavage
  PAG + hippuric acid/creatinine: 0.74*
  PAG/PAG + hippuric acid: 33.36* %
  PAG/creatinine (first term of PAG + hippuric acid): 0.20
  PAG/hippuric acid: 62.72* %
  hippuric acid/creatinine (second term of PAG + hippuric acid): 0.52

## C1CCC(C(CC2CCCCN2)C2CCCCC2)CC1 (stereo not drawn) [Perhexiline, perhexiline]
Crj: CD(SD)IGS rats [3]; 60 mg/kg/day
  Mean vacuolated lymphocyte ratio: 2%
Crj: CD(SD)IGS rats [3]; 200 mg/kg/day
  Mean vacuolated lymphocyte ratio: 4%
Crj: CD(SD)IGS rats [3]; 600 mg/kg/day
  Mean vacuolated lymphocyte ratio: 52%
Crj: CD(SD)IGS rats [4]; 60 mg/kg/day
  Histopathological changes (PLsis): Liver: −
  Histopathological changes (PLsis): Lung: −
  Histopathological changes (PLsis): Lymph node: −
  Histopathological changes (PLsis): Others: −
  Histopathological changes (PLsis): Spleen: −
Crj: CD(SD)IGS rats [4]; 200 mg/kg/day
  Histopathological changes (PLsis): Liver: −
  Histopathological changes (PLsis): Lung: +
  Histopathological changes (PLsis): Lymph node: +
  Histopathological changes (PLsis): Others: −
  Histopathological changes (PLsis): Spleen: −
Crj: CD(SD)IGS rats [4]; 600 mg/kg/day
  Histopathological changes (PLsis): Liver: −
  Histopathological changes (PLsis): Lung: +
  Histopathological changes (PLsis): Lymph node: +
  Histopathological changes (PLsis): Others: −
  Histopathological changes (PLsis): Spleen: +
Male cynomolgus monkeys [6]; cynomolgus monkey urine, 60 mg/kg, gavage 7 days
  PAGN/hippuric acid ratio compared to the control group: increased
Male cynomolgus monkeys [6]; Day 0, 1 animal
  Urinary PAGN/hippuric acid ratio: 2.17
Male cynomolgus monkeys [6]; Day 2, 1 animal
  Urinary PAGN/hippuric acid ratio: 1.43
Male cynomolgus monkeys [6]; Day 6, 1 animal
  Urinary PAGN/hippuric acid ratio: ↑12.89
Male cynomolgus monkeys [6]; Pre (pre-dosing period), 1 animal
  Urinary PAGN/hippuric acid ratio: 1.10
Male cynomolgus monkeys [7]
  histopathological changes in any target organ: observed
  vacuolated lymphocyte ratio: increase
Crj: CD(SD)IGS rats [2]; 60 mg/kg/day by gavage
  PAG + hippuric acid/creatinine: 1.47
  PAG/PAG + hippuric acid: 10.16%
  PAG/creatinine (first term of PAG + hippuric acid): 0.15
  PAG/hippuric acid: 11.39%
  hippuric acid/creatinine (second term of PAG + hippuric acid): 1.31
Crj: CD(SD)IGS rats [2]; 200 mg/kg/day by gavage
  PAG + hippuric acid/creatinine: 1.52
  PAG/PAG + hippuric acid: 15.59* %
  PAG/creatinine (first term of PAG + hippuric acid): 0.24
  PAG/hippuric acid: 18.49%
  hippuric acid/creatinine (second term of PAG + hippuric acid): 1.28
Crj: CD(SD)IGS rats [2]; 600 mg/kg/day by gavage
  PAG + hippuric acid/creatinine: 0.75*
  PAG/PAG + hippuric acid: 45.67* %
  PAG/creatinine (first term of PAG + hippuric acid): 0.31
  PAG/hippuric acid: 146.97* %
  hippuric acid/creatinine (second term of PAG + hippuric acid): 0.44

## CCN(CC)CCCC(C)Nc1c2ccc(Cl)cc2nc2ccc(OC)cc12 (stereo not drawn) [Quinacrine, quinacrine]
Crj: CD(SD)IGS rats [3]; 60 mg/kg/day
  Mean vacuolated lymphocyte ratio: 14%
Crj: CD(SD)IGS rats [3]; 200 mg/kg/day
  Mean vacuolated lymphocyte ratio: 32%
Crj: CD(SD)IGS rats [3]; 600 mg/kg/day
  Mean vacuolated lymphocyte ratio: 52%
Crj: CD(SD)IGS rats [4]; 60 mg/kg/day
  Histopathological changes (PLsis): Liver: +
  Histopathological changes (PLsis): Lung: +
  Histopathological changes (PLsis): Lymph node: −
  Histopathological changes (PLsis): Others: −
  Histopathological changes (PLsis): Spleen: −
Crj: CD(SD)IGS rats [4]; 200 mg/kg/day
  Histopathological changes (PLsis): Liver: +
  Histopathological changes (PLsis): Lung: +
  Histopathological changes (PLsis): Lymph node: +
  Histopathological changes (PLsis): Others: −
  Histopathological changes (PLsis): Spleen: −
Crj: CD(SD)IGS rats [4]; 600 mg/kg/day
  Histopathological changes (PLsis): Liver: +
  Histopathological changes (PLsis): Lung: +
  Histopathological changes (PLsis): Lymph node: +
  Histopathological changes (PLsis): Others: −
  Histopathological changes (PLsis): Spleen: −
Crj: CD(SD)IGS rats [8]
  PAG/hippuric acid concentration ratio compared to the control group: increased
Crj: CD(SD)IGS rats [8]; mean ± SD n = 4
  PAG/hippuric acid ratio: 0.2178 ± 0.0919
[5]; [9]
  LD50: 900 mg/kg
Crj: CD(SD)IGS rats [2]; 60 mg/kg/day by gavage
  PAG + hippuric acid/creatinine: 1.45
  PAG/PAG + hippuric acid: 21.82* %
  PAG/creatinine (first term of PAG + hippuric acid): 0.32
  PAG/hippuric acid: 28.35* %
  hippuric acid/creatinine (second term of PAG + hippuric acid): 1.13
Crj: CD(SD)IGS rats [2]; 200 mg/kg/day by gavage
  PAG + hippuric acid/creatinine: 1.58
  PAG/PAG + hippuric acid: 46.42* %
  PAG/creatinine (first term of PAG + hippuric acid): 0.75
  PAG/hippuric acid: 91.89* %
  hippuric acid/creatinine (second term of PAG + hippuric acid): 0.83
Crj: CD(SD)IGS rats [2]; 600 mg/kg/day by gavage
  PAG + hippuric acid/creatinine: 1.07*
  PAG/PAG + hippuric acid: 78.62* %
  PAG/creatinine (first term of PAG + hippuric acid): 0.83
  PAG/hippuric acid: 441.69* %
  hippuric acid/creatinine (second term of PAG + hippuric acid): 0.24
